{
  "source": "paper PMC3501507",
  "about": "“A Metal-Based Inhibitor of NEDD8-Activating Enzyme” (PLoS ONE, 2012)",
  "target": "T1, NEDD8-activating enzyme (NAE) (Homo sapiens, UniProt Q8TBC4)",
  "T1 construct": "gene UBA3; recombinant human NAE (APPBP1/UBA3 heterodimer); with APPBP1 (NAE1)",
  "T1 sequence (Q8TBC4 2-463)": "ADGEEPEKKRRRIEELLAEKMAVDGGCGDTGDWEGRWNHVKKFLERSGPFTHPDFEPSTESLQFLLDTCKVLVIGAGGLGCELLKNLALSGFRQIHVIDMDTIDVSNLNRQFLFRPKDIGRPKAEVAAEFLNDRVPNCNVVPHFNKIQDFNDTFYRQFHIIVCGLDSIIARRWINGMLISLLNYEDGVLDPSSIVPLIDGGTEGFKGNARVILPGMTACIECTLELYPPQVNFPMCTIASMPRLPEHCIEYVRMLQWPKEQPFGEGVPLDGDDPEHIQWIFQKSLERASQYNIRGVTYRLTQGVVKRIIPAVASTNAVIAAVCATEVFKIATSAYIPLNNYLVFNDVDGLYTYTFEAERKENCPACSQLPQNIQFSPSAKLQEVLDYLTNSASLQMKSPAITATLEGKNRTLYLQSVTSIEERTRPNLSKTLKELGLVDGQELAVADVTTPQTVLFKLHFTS",
  "T1 sequence (Q13564 2-534 partner)": "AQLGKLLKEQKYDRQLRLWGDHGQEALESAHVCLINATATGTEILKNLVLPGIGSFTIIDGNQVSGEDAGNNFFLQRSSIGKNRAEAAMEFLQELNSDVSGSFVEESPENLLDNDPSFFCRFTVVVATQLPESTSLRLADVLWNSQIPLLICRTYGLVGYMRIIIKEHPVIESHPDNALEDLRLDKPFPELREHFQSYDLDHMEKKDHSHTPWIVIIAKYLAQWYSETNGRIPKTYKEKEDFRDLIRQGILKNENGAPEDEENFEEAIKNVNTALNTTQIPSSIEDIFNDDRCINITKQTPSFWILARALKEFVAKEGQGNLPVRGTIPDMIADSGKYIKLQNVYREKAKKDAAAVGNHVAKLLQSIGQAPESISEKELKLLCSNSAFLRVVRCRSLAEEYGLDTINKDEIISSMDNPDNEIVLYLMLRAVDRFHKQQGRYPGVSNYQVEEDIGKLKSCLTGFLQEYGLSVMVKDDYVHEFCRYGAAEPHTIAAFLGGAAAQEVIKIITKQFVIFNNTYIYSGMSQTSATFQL",
  "test": "cell-free Ubc12-NEDD8 conjugation assay, western blot",
  "format": "biochemical",
  "data": [
    {"smiles": "c1cc[c]2c(c1)-c1cccc[n+]1[Rh-3]213([c]2ccccc2-c2cccc[n+]21)[n+]1cccc2c4nc5ccccc5nc4c4ccc[n+]3c4c21", "note": "[compound 1, [Rh(ppy)2(dppz)]^+]", "values": [
      {"measurement": "IC50", "value": "~1.5", "unit": "µM"}
    ]},
    {"smiles": "Cc1cc2nc3c4ccc[n+]5c4c4c(ccc[n+]4[Rh-3]546([c]5ccccc5-c5cccc[n+]54)[c]4ccccc4-c4cccc[n+]46)c3nc2cc1C", "note": "[compound 2, complex 2]", "values": [
      {"measurement": "IC50", "value": "~6.25", "unit": "µM"}
    ]},
    {"smiles": "Cc1cc2nc3c4ccc[n+]5c4c4c(ccc[n+]4[Rh-3]546([c]5cc(C=O)ccc5-c5cccc[n+]54)[c]4cc(C=O)ccc4-c4cccc[n+]46)c3nc2cc1C", "note": "[compound 3, complex 3]", "values": [
      {"measurement": "IC50", "value": "~6.25", "unit": "µM"}
    ]},
    {"smiles": "O=Cc1ccc2[c](c1)[Rh-3]13([c]4cc(C=O)ccc4-c4cccc[n+]41)([n+]1ccccc1-2)[n+]1cccc2c4nc5ccc([N+](=O)[O-])cc5nc4c4ccc[n+]3c4c21", "note": "[compound 4, complex 4]", "values": [
      {"measurement": "IC50", "value": "~13", "unit": "µM"}
    ]}
  ]
}
